Experimental data published in patent publication US20030175979A1, “System and method for characterizing metabolites using hydrogen/deuterium exchange” (priority 2002, published 2003).
“Also recorded” adds a separate entry of the source.

Columns and labels:
dog liver hepatocytes = experiment: Incubation of [14C]PD 0200126 with dog hepatocytes, radiochromatographic metabolite profile; assay type: in vitro ADME; details: [14C]PD 0200126 incubated with dog hepatocytes for 180 minutes; flow-through radioactivity detector
Description: In Vitro Study. A proposed metabolite M2 (PD 0200126-glucuronide) was formed following incubation of [^14C]PD 0200126 with dog liver hepatocytes for 180 minutes.
Apparatus and Conditions. An Agilent 1100 HPLC system (Agilent Technologies, Wilmington, Del.), including pumps, autoinjector, and UV detector, was used to separate the metabolites. Separation of the metabolites was achieved using a Metasil AQ guard column (Metachem Technologies, Torrance, Calif.) and a 150 mm×4.6 mm MetaChem Polaris C-18 reversed-phase HPLC column (Metachem Technologies). […]
After passing through the UV detector (280 nm), the HPLC effluent was split so that 20%-30% of the flow was introduced into the mass spectrometer via an ESI source supplied with the mass spectrometer, while 70%-80% was diverted to the radioactivity detector (β-RAM, IN/US, Tampa, Fla.). The analog output from the UV detector, along with the MS signal, were recorded in real time by the data system provided with the mass spectrometer (Xcalibur V 1.2, ThermoFinnigan). […] The β-RAM data was integrated to obtain semi-quantitative information about the metabolites and the unchanged drug. The delay in response between the radioactivity detector and the MS was 0.2 min -0.4 min with the MS response being recorded first. […]

[1] = Metabolite profile in rabbit plasma after oral administration of PD 0200126 (LC-UV/MS); assay type: in vivo; details: 300 mg/kg oral PD 0200126, UV 280 nm and LC-MS
Description: In Vivo Studies. To obtain plasma samples, blood from rabbits was collected at various time points following a 300 mg/kg oral administration of PD 0200126. Plasma was precipitated by addition of 3 volumes of acetonitrile to 1 volume of plasma and then centrifuged. The resulting supernatant was decanted off, dried, and subsequently reconstituted in the mobile phase solvent (described below) prior to injection in the HPLC. A 100-μL aliquot was injected for each experiment (run).
Apparatus and Conditions. An Agilent 1100 HPLC system (Agilent Technologies, Wilmington, Del.), including pumps, autoinjector, and UV detector, was used to separate the metabolites. Separation of the metabolites was achieved using a Metasil AQ guard column (Metachem Technologies, Torrance, Calif.) and a 150 mm×4.6 mm MetaChem Polaris C-18 reversed-phase HPLC column (Metachem Technologies). The mobile phase comprised 20-mM ammonium acetate in water adjusted to pH 4 with acetic acid (Solvent A) and acetonitrile (Solvent B), and was maintained at a constant flow rate (1 mL/min) throughout each run. Gradient elution of the metabolites was achieved using programmed stepwise changes of solvent A/B ratios of 95/5, 50/50, 25/75, 5/95, and 95/5 at 0, 40, 50, 60, and 75 min, respectively.
After passing through the UV detector (280 nm), the HPLC effluent was split so that 20%-30% of the flow was introduced into the mass spectrometer via an ESI source supplied with the mass spectrometer, while 70%-80% was diverted to the radioactivity detector (β-RAM, IN/US, Tampa, Fla.). The analog output from the UV detector, along with the MS signal, were recorded in real time by the data system provided with the mass spectrometer (Xcalibur V 1.2, ThermoFinnigan). A separate software program (Win-Flow V 1.5, IN/US, Tampa, Fla.) was used to control the β-RAM and to collect the analog output from the β-RAM. The β-RAM data was integrated to obtain semi-quantitative information about the metabolites and the unchanged drug. The delay in response between the radioactivity detector and the MS was 0.2 min -0.4 min with the MS response being recorded first.
Trace amounts of PD 0200126 and M10 were also observed at m/z 425 and 409, respectively. Metabolites M1-M6 were characterized in a separate study involving rat and mouse hepatocytes.

share of the total radioactivity associated with the component (dog liver hepatocytes) | abundance of drug/metabolite in plasma (UV component / extracted ion chromatogram) [1] | SMILES | abundance of drug/metabolite in plasma (UV component / extracted ion chromatogram) ([1]; 300 mg/kg)
minor amounts | prominent UV components | CC(C)[C@@H](NS(=O)(=O)c1ccc(-c2ccc(Br)cc2)cc1)C(=O)O [Metabolite M9, PD 0200126-carboxylic acid] | –
– | Trace amounts | CC(C)[C@@H](NS(=O)(=O)c1ccc(-c2ccc(Br)cc2)cc1)C(=O)NO [PD 0200126, 2-(4′-bromo-biphenyl-4-sulfonylamino)-N-hydroxy-3-methyl-butyramide] | –

The next lines start with the compound.

SMILES | share of the total radioactivity associated with the component (dog liver hepatocytes) | abundance of drug/metabolite in plasma (UV component / extracted ion chromatogram) [1] | abundance of drug/metabolite in plasma (UV component / extracted ion chromatogram) ([1]; 300 mg/kg)
CC(C)[C@@H](NS(=O)(=O)c1ccc(-c2ccc(Br)cc2)cc1)C(=O)NOC1OC(C(=O)O)C(O)C(O)C1O (stereo partly drawn) [Metabolite M2, PD 0200126-glucuronide] | more than 90% | – | –
NS(=O)(=O)c1ccc(-c2ccc(Br)cc2)cc1 [Metabolite M8, bromo-biphenylsulfonamide] | – | prominent UV components | –
CC(C)[C@@H](NS(=O)(=O)c1ccc(-c2ccc(Br)cc2)cc1)C(N)=O [Metabolite M10] | – | – | Trace amounts; also recorded: minor UV component
